Source: patent publication EP1067939B1, “USE OF STEROIDAL ALKALOID DERIVATIVES AS INHIBITORS OF HEDGEHOG PROTEIN SIGNALING PATHWAYS” (The Johns Hopkins University, priority 1998, dated 1999)
Where two headings read alike, the source gives them in different places.

Legend:
[1] = tested on: rat hepatoma cells; assay: Cholesterol Esterification Assay (esterification of plasma membrane cholesterol); format: cell-based
From the text: Table 1. […] Table 1. Effects of synthetic and plant-derived compounds on cholesterol homeostasis. […]

[2] = molecular target: T1, Shh (Mus musculus, UniProt Q62226); assay: Shh autoprocessing in stably transfected HK293 cells (immunoblot); format: cell-based
T1 construct: expressed in transfected cells; host or cells: HK293 cells, Ecdysone-Inducible Mammalian Expression System (Invitrogen)
From the text: To examine potential effects of these compounds on Shh processing we utilized HK293 cells cultured in lipid-depleted serum and carrying a stable integrated construct for expression of Shh under ecdysone-inducible control (47). Shh protein expression in these cells can be induced by addition of muristerone A, an ecdysone analog.
• 1. M. Hammerschmidt, A. Brook, A. P. McMahon, Trends Genet, 13, 14-21 (1997). • 2. C. Chiang, et al., Nature, 383,407-413 (1996). • 3. Y. Tanabe, T. M. Jessell, Science 274, 1115-1123 (1996). • 4. T. P. Yamaguchi, Curr. Opin. Genet. Dev. 7, 513-518 (1997). • 5. N. Shubin, C. Tabin, S. Carroll, Nature 388, 639-648 (1997). • 6. A. E. Oro, et al., Science 276, 817-821 (1997). • 7. M. M. Cohen, K. K. Sulik, J. Craniofac. Genet. Deve. Biol. 12, 196-244 (1992). • 8. E. Belloni, et al., Nature Genet. 14, 353-356 (1996). • 9. E. Roessler, et al., Nature Genet. 14, 357-360 (1996). • 10. J. A. Porter, et al., Nature 374, 363-366 (1995). • 11. J. A. Porter, K. E. Young, P. A. Beacy, Science 274, 255-259 (1996b). • 12. J. J. Lee, et al., Science 266, 1528-1537 (1994). • 13. J. A. Porter, et al., Cell 86, 21-34 (1996a). • 14. C. Roux, Arch. Franc. Pediatr. 21, 451-464 (1964). • 15. C. Roux, C. R. Soc. Biol. 160, 1353-1357 (1966). • 16. D. B. Dehart, L. Lanoue, G. S. Tinit, K. K. Sulik, Am J. Med. Genet. 68, 328-337 (1997). • 17. M. Kraml, J. F. Bagli, D. Dvornik, Biochem. and Biophysical Res. Com. 15, 455-457 (1964). • 18. J. Avigan, D. Steinberg, H. E. Vroman, M. J. Thompson, E. Mosettig, J. Biol. Chem 235, 3123-3126 (1960). • 19. R. B. Clayton, A. N. Nelson, I. D. Frantz Jr., J. Lipid Res. 4, 166-178 (1963). • 20. J. Aufenanger, J. Pill, K. Stegmeier, F. H. Schmidt, Horm. Metabol. Res. 17, 612-613 (1986). • 21. […] G. Popjak, A. Meenean, E. J. Parish, W. D. Nes, J. Biol. Chem 264,6230-6238 (1989). • 23. H. Yoshikawa, Brain Deve. 13, 115-120 (1991). • 24. R. I. Kelley, et al., Am. J. Of Med. Gen. 66, 478-484 (1996). • 25. G. S. Tint, et al., New England Journal of Medicine 330, 107-113 (1994). • 26. T.E. Willnow, et al., Proc. Natl. Acad. Sci USA 93, 8460-8464 (1996). • 27. S. Stefansson, D. A. Chappell, K. M. Argraves, D. K. Strickland, W. S. Argraves, J. Biol. Chem. 270, 19417-19421 (1995). • 28. W. Binns, L. F. James, J. L. Shupe, G. Everett, Am. J. Vet. Res. 24, 1164-1174 (1963). • 29. R. F. Keeler, W. Binns, Teratology 1, 5-10 (1968). • 30. P. A. Beachy, et al., CSH Symp. Quant. Biol. 62, in press (1997). • 31. E. D. Carstea, et al., Science 277, 228-231 (1997). • 32. S. K. Loftus, et al., Science 277, 232-235 […]. • 33. L. V. Goodrich, L. Milenkovic, K. M. Higgins, M. P. Scott, Science 277, 1109-1113 (1997). • 34. H. Kumagai, K. T. Chun, R. D. Simoni, J. Biol. Chem. 270, 19107-19113 (1995). • 35. G. Gil, J. R. Faust, D. J. Chin, J. L. Goldstien, M. S. Brown, Cell 41, 249-258 (1985). • 36. X. Hua, A. Nohturfft, J. L. Goldstein, M. S. Brown, Cell 87, 415-426 (1996). • 37. M. S. Brown, J. L. Goldstein, Cell 89, 331-340 (1997). • 38. M. M. Bryden, C. Perry, R. F. Keeler, Teratology 8, 18-28 (1973). • 39. M. L. Omnell, F. R. P. Sim, R. F. Keeler, L. C. Harne, K. W. Brown, Teratology 42, 105-119 (1990). • 40. Fertile chick eggs (white leghorn) were placed in a humidified incubator at 37.5° C in a rotating tray for 14 hours. […] The window was taped and the eggs incubated for an additional 4 days. The embryos were dissected in phosphate buffered saline (PBS, pH 7.2).

[3] = tested on: Shh-N; assay: Intermediate neural plate explant response to exogenous Shh-N protein; format: cell-based, chick
[4] = tested on: BMP7; assay: Neural plate explant response to BMP7 (migratory HNK-1 positive cells); format: cell-based, chick; conditions: 100 ng/ml BMP7, ventral neural plate explants
[5] = read-out: Percent Inhibition (incorporation of label into cholesteryl ester*) ^3H-Cholesterol
[6] = read-out: Percent Inhibition (incorporation of label into cholesteryl ester*) ^14C-Oleic Acid

T1 sequence (Q62226 25-437): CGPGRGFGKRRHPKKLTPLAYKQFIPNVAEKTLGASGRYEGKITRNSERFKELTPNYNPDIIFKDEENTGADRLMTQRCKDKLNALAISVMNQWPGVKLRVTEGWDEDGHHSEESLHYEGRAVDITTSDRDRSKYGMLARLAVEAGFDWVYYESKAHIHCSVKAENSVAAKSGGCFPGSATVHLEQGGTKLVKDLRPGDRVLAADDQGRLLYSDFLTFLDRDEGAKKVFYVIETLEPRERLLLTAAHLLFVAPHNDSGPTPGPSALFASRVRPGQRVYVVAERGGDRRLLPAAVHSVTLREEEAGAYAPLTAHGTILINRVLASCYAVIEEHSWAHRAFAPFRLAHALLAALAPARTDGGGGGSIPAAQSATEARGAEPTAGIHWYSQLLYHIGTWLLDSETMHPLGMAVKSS

CC1=C2C[C@H]3[C@@H](CC=C4C[C@@H](O)CC[C@@]43C)[C@@H]2CC[C@]12O[C@@H]1C[C@H](C)CN[C@H]1[C@H]2C [Cyclopamine, cyclopamine]
inhibition at 2.5 µM [1, 5]: 48%
inhibition at 5 µM [1, 5]: 67%
inhibition at 10 µM [1, 5]: 79%
inhibition at 2.5 µM [1, 6]: 45%
inhibition at 5 µM [1, 6]: 62%
inhibition at 10 µM [1, 6]: 74%
Shh-Np production and accumulation of unprocessed precursor [2]: did not diminish Shh-Np production nor induce accumulation of unprocessed precursor
concentration that inhibits the repression of Pax7 expression by 2 nM Shh-N [3]: 0.0625 µM
doses at which HNF3β and Isl-1 induction are completely blocked [3]: 0.25 µM
intermediate levels at which induction of HNF3β is blocked while induction of Isl-1 is maintained or expanded [3]: 0.125 µM
Induction of migratory HNK-1 positive cells by BMP7 ([4]; 10 µM): not inhibited

C[C@H]1CC[C@]2(NC1)O[C@H]1C[C@H]3[C@@H]4CC[C@H]5C[C@@H](O)CC[C@]5(C)[C@H]4CC[C@]3(C)[C@H]1[C@@H]2C [Tomatidine, tomatidine]
inhibition at 2.5 µM ([1]; 2.5 µM, read-out: Percent Inhibition (incorporation of label into cholesteryl ester*) ^3H-Cholesterol): 31%
inhibition at 2.5 µM ([1]; 2.5 µM, read-out: Percent Inhibition (incorporation of label into cholesteryl ester*) ^14C-Oleic Acid): 30%
inhibition at 5 µM ([1]; 5.0 µM, read-out: Percent Inhibition (incorporation of label into cholesteryl ester*) ^3H-Cholesterol): 33%
inhibition at 5 µM ([1]; 5.0 µM, read-out: Percent Inhibition (incorporation of label into cholesteryl ester*) ^14C-Oleic Acid): 64%
inhibition at 10 µM ([1]; 10 µM, read-out: Percent Inhibition (incorporation of label into cholesteryl ester*) ^3H-Cholesterol): 39%
inhibition at 10 µM ([1]; 10 µM, read-out: Percent Inhibition (incorporation of label into cholesteryl ester*) ^14C-Oleic Acid): 52%
Shh-Np production and accumulation of unprocessed precursor ([2]; added during the 24-hour induction period, doses up to 5-fold higher than those required to completely inhibit Shh signaling): did not diminish Shh-Np production nor induce accumulation of unprocessed precursor
slower migrating Shh species, signal sequence cleavage ([2]; species ∼ 1.9 kD larger, lanes 10, 11): minor inhibition of signal sequence cleavage
concentrations producing partial inhibition relative to those required for complete inhibition by jervine and cyclopamine [3]: 100200 fold
concentration that inhibits the repression of Pax7 expression by 2 nM Shh-N ([3]; 2 nM Shh-N, 20 hours): > 50 µM
effect on HNF3β and Isl-1 induction ([3]; 50 µM, 25 nM Shh-N): markedly reduces HNF3β induction and enhances Isl1-1 induction
effect on HNF3β and Isl-1 expression ([3]; Tomatidine at 25 nM (so in the source), 25 nM Shh-N): slight inhibitory effect
Induction of migratory HNK-1 positive cells by BMP7 ([4]; 50 µM): not inhibited
